According to patent US9708314B2, “Heterocyclic amide compound” (NISSAN CHEMICAL INDUSTRIES, LTD., priority 2013, dated 2017):

Legend:
Assay type in all cases: in vivo
[1] = test system: Echinochloa crus-galli var. crus-galli; test: Test Example 3: herbicidal effect by application to foliage (Wagner pot, water depth 0.1-0.5 cm); conditions: Nineteenth Table; application to foliage; application herbicide amount 320 g/ha
Outline: (§1)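 Alluvial soil in 1/10000 are Wagner pots, sown and grown 14 days in a 25–30 °C greenhouse. An emulsifiable concentrate diluted in water to the set dose (g/ha) was sprayed on stems and leaves. Effect scored three weeks later on a 0–5 scale: 5 = ≥90% herbicidal ratio, 0 = ≤5%.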

Leptochloa chinensis = test: as above; conditions: Nineteenth Table; application to foliage; application herbicide amount 320 g/ha
Outline: as §1

Cyperus difformis = test: as above; conditions: Nineteenth Table; application to foliage; application herbicide amount 320 g/ha
Outline: as §1

Glycine max = test: Test Example 4: effect on crop by application to foliage (diluvial soil, plastic box)
Outline: (§2)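 Scores run from 0 (herbicidal ratio ≤5%) to 5 (≥90%, almost fully withered) and were assessed three weeks after foliar spraying. Seedlings had been raised for 14 days at 25-30° C in sterilized diluvial soil before treatment, with the emulsion diluted in water to the stated g/ha dose.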

Triticum aestivum = test: as above
Outline: as §2

[2] = test system: Beta vulgaris ssp. vulgaris; test: as above
Outline: as §2

Zea mays = test: as above
Outline: as §2

[3] = test system: directly sowed Oryza sativa; test: as above
Outline: as §2

Brassica campestris L. = test: as above
Outline: as §2

Digitaria ciliaris = test: Test Example 4: herbicidal effect by application to foliage (diluvial soil, plastic box)
Outline: as §2

Avena fatua = test: as above
Outline: as §2

Abutilon theophrasti = test: as above
Outline: as §2

Apera spica-venti. = test: as above
Outline: as §2

Galium spurium = test: as above
Outline: as §2

Amaranthus retroflexus = test: as above
Outline: as §2

Chenopodium album = test: as above
Outline: as §2

[4] = test system: Echinochloa crus-galli var. crus-galli; test: as above
Outline: as §2

Alopecurus myosuroides = test: as above
Outline: as §2

Setaria viridis = test: as above
Outline: as §2

Stellaria media = test: as above
Outline: as §2

Lolium multiflorum Lam. = test: as above
Outline: as §2

Veronica persica = test: as above
Outline: as §2

[5] = application to foliage, application herbicide amount 320 g/ha
[6] = application to foliage, 320 g/ha

**Q.** How did the “H (herbicidal effect grade)” value [1] turn out when Cc1nnc(NC(=O)c2ccc(C(F)(F)F)n3c(SC4CCCC4)nnc23)o1 [1-154] was run?
**A.** 3 (Herbicidal ratio of 40% or more and less than 70%)

**Q.** What about the “D (herbicidal effect grade)” value (Leptochloa chinensis) of the same compound?
**A.** 2 (Herbicidal ratio of 20% or more and less than 40%)

**Q.** And the “E (herbicidal effect grade)” value (Cyperus difformis)?
**A.** 4 (Herbicidal ratio of 70% or more and less than 90%)

**Q.** And the “d: effect on crop, Glycine max” value (Glycine max; [5])?
**A.** 2 (Herbicidal ratio of 20% or more and less than 40%)

**Q.** What about the “e: effect on crop, Triticum aestivum” value (Triticum aestivum; [5]) of the same compound?
**A.** 0 (Herbicidal ratio of 5% or less (almost no effect))

**Q.** And the “f: effect on crop, Beta vulgaris ssp. vulgaris” value [2, 5]?
**A.** 4 (Herbicidal ratio of 70% or more and less than 90%)

**Q.** What about the “c: effect on crop, Zea mays” value (Zea mays; [5]) of the same compound?
**A.** 0 (Herbicidal ratio of 5% or less (almost no effect))

**Q.** And the “b: effect on crop, directly sowed Oryza sativa” value [3, 5]?
**A.** 0 (Herbicidal ratio of 5% or less (almost no effect))

**Q.** What about the “g: effect on crop, Brassica campestris L.” value (Brassica campestris L.; [5]) of the same compound?
**A.** 0 (Herbicidal ratio of 5% or less (almost no effect))

**Q.** What about the “F: herbicidal effect on Digitaria ciliaris” value (Digitaria ciliaris; [5]) of the same compound?
**A.** 3 (Herbicidal ratio of 40% or more and less than 70%)

**Q.** What about the “I: herbicidal effect on Avena fatua” value (Avena fatua; [5]) of the same compound?
**A.** 0 (Herbicidal ratio of 5% or less (almost no effect))

**Q.** And the “M: herbicidal effect on Abutilon theophrasti” value (Abutilon theophrasti; [5])?
**A.** 2 (Herbicidal ratio of 20% or more and less than 40%)

**Q.** What about the “L: herbicidal effect on Apera spica-venti.” value (Apera spica-venti.; [5]) of the same compound?
**A.** 0 (Herbicidal ratio of 5% or less (almost no effect))

**Q.** What about the “Q: herbicidal effect on Galium spurium” value (Galium spurium; [5]) of the same compound?
**A.** 0 (Herbicidal ratio of 5% or less (almost no effect))

**Q.** And the “N: herbicidal effect on Amaranthus retroflexus” value (Amaranthus retroflexus; [5])?
**A.** 2 (Herbicidal ratio of 20% or more and less than 40%)

**Q.** And the “O: herbicidal effect on Chenopodium album” value (Chenopodium album; [5])?
**A.** 5 (Herbicidal ratio of 90% or more (almost completely withered))

**Q.** What about the “H: herbicidal effect on Echinochloa crus-galli var. crus-galli” value [4, 5] of the same compound?
**A.** 3 (Herbicidal ratio of 40% or more and less than 70%)

**Q.** What about the “J: herbicidal effect on Alopecurus myosuroides” value (Alopecurus myosuroides; [5]) of the same compound?
**A.** 0 (Herbicidal ratio of 5% or less (almost no effect))

**Q.** What about the “G: herbicidal effect on Setaria viridis” value (Setaria viridis; [5]) of the same compound?
**A.** 2 (Herbicidal ratio of 20% or more and less than 40%)

**Q.** What about the “P: herbicidal effect on Stellaria media” value (Stellaria media; [5]) of the same compound?
**A.** 4 (Herbicidal ratio of 70% or more and less than 90%)

**Q.** What about the “K: herbicidal effect on Lolium multiflorum Lam.” value (Lolium multiflorum Lam.; [5]) of the same compound?
**A.** 0 (Herbicidal ratio of 5% or less (almost no effect))

**Q.** And the “R: herbicidal effect on Veronica persica” value (Veronica persica; [5])?
**A.** 0 (Herbicidal ratio of 5% or less (almost no effect))

**Q.** With Cn1nnnc1NC(=O)c1ccc(C(F)(F)F)n2c(C[S+]([O-])CC(F)(F)F)nnc12 (stereo not drawn) [2-035] as the compound, how does the “H (herbicidal effect grade)” value [1] read?
**A.** 5 (Herbicidal ratio of 90% or more (almost completely withered))

**Q.** And the “D (herbicidal effect grade)” value (Leptochloa chinensis)?
**A.** 5 (Herbicidal ratio of 90% or more (almost completely withered))

**Q.** And the “E (herbicidal effect grade)” value (Cyperus difformis)?
**A.** 4 (Herbicidal ratio of 70% or more and less than 90%)

**Q.** What about the “c (Glycine max) effect on crop grade” value (Glycine max; foliage application, 320 g/ha) of the same compound?
**A.** 2 (Herbicidal ratio of 20% or more and less than 40%)

**Q.** And the “e (Triticum aestivum) effect on crop grade” value (Triticum aestivum; foliage application, 320 g/ha)?
**A.** 4 (Herbicidal ratio of 70% or more and less than 90%)

**Q.** And the “f (Beta vulgaris ssp. vulgaris) effect on crop grade” value ([2]; foliage application, 320 g/ha)?
**A.** 5 (Herbicidal ratio of 90% or more (almost completely withered))

**Q.** And the “b (Zea mays) effect on crop grade” value (Zea mays; foliage application, 320 g/ha)?
**A.** 5 (Herbicidal ratio of 90% or more (almost completely withered))

**Q.** What about the “d (directly sowed Oryza sativa) effect on crop grade” value ([3]; foliage application, 320 g/ha) of the same compound?
**A.** 4 (Herbicidal ratio of 70% or more and less than 90%)

**Q.** What about the “g (Brassica campestris L.) effect on crop grade” value (Brassica campestris L.; foliage application, 320 g/ha) of the same compound?
**A.** 5 (Herbicidal ratio of 90% or more (almost completely withered))

**Q.** What about the “F (Digitaria ciliaris) herbicidal effect grade” value (Digitaria ciliaris; foliage application, 320 g/ha) of the same compound?
**A.** 5 (Herbicidal ratio of 90% or more (almost completely withered))

**Q.** And the “I (Avena fatua) herbicidal effect grade” value (Avena fatua; foliage application, 320 g/ha)?
**A.** 4 (Herbicidal ratio of 70% or more and less than 90%)

**Q.** And the “M (Abutilon theophrasti) herbicidal effect grade” value (Abutilon theophrasti; foliage application, 320 g/ha)?
**A.** 5 (Herbicidal ratio of 90% or more (almost completely withered))

**Q.** And the “L (Apera spica-venti.) herbicidal effect grade” value (Apera spica-venti.; foliage application, 320 g/ha)?
**A.** 4 (Herbicidal ratio of 70% or more and less than 90%)

**Q.** What about the “Q (Galium spurium) herbicidal effect grade” value (Galium spurium; foliage application, 320 g/ha) of the same compound?
**A.** 2 (Herbicidal ratio of 20% or more and less than 40%)

**Q.** What about the “N (Amaranthus retroflexus) herbicidal effect grade” value (Amaranthus retroflexus; foliage application, 320 g/ha) of the same compound?
**A.** 5 (Herbicidal ratio of 90% or more (almost completely withered))

**Q.** And the “O (Chenopodium album) herbicidal effect grade” value (Chenopodium album; foliage application, 320 g/ha)?
**A.** 5 (Herbicidal ratio of 90% or more (almost completely withered))

**Q.** What about the “H (Echinochloa crus-galli var. crus-galli) herbicidal effect grade” value ([4]; foliage application, 320 g/ha) of the same compound?
**A.** 5 (Herbicidal ratio of 90% or more (almost completely withered))

**Q.** And the “J (Alopecurus myosuroides) herbicidal effect grade” value (Alopecurus myosuroides; foliage application, 320 g/ha)?
**A.** 3 (Herbicidal ratio of 40% or more and less than 70%)

**Q.** What about the “G (Setaria viridis) herbicidal effect grade” value (Setaria viridis; foliage application, 320 g/ha) of the same compound?
**A.** 5 (Herbicidal ratio of 90% or more (almost completely withered))

**Q.** What about the “P (Stellaria media) herbicidal effect grade” value (Stellaria media; foliage application, 320 g/ha) of the same compound?
**A.** 5 (Herbicidal ratio of 90% or more (almost completely withered))

**Q.** And the “K (Lolium multiflorum Lam.) herbicidal effect grade” value (Lolium multiflorum Lam.; foliage application, 320 g/ha)?
**A.** 4 (Herbicidal ratio of 70% or more and less than 90%)

**Q.** And the “R (Veronica persica) herbicidal effect grade” value (Veronica persica; foliage application, 320 g/ha)?
**A.** 5 (Herbicidal ratio of 90% or more (almost completely withered))

**Q.** Cn1nnnc1NC(=O)c1ccc(C(F)(F)F)n2c(N3CCOCC3)nnc12 [2-075] was tested. Which “H (herbicidal effect grade)” value [1] did it give?
**A.** 5 (Herbicidal ratio of 90% or more (almost completely withered))

**Q.** What about the “D (herbicidal effect grade)” value (Leptochloa chinensis) of the same compound?
**A.** 5 (Herbicidal ratio of 90% or more (almost completely withered))

**Q.** And the “E (herbicidal effect grade)” value (Cyperus difformis)?
**A.** 5 (Herbicidal ratio of 90% or more (almost completely withered))

**Q.** And the “effect on crop, c (Glycine max)” value (Glycine max; [6])?
**A.** 3 (Herbicidal ratio of 40% or more and less than 70%)

**Q.** What about the “effect on crop, e (Triticum aestivum)” value (Triticum aestivum; [6]) of the same compound?
**A.** 4 (Herbicidal ratio of 70% or more and less than 90%)

**Q.** And the “effect on crop, f (Beta vulgaris ssp. vulgaris)” value [2, 6]?
**A.** 5 (Herbicidal ratio of 90% or more (almost completely withered))

**Q.** What about the “effect on crop, b (Zea mays)” value (Zea mays; [6]) of the same compound?
**A.** 5 (Herbicidal ratio of 90% or more (almost completely withered))

**Q.** And the “effect on crop, d (directly sowed Oryza sativa)” value [3, 6]?
**A.** 5 (Herbicidal ratio of 90% or more (almost completely withered))

**Q.** What about the “effect on crop, g (Brassica campestris L.)” value (Brassica campestris L.; [6]) of the same compound?
**A.** 5 (Herbicidal ratio of 90% or more (almost completely withered))

**Q.** What about the “herbicidal effect, F (Digitaria ciliaris)” value (Digitaria ciliaris; [6]) of the same compound?
**A.** 5 (Herbicidal ratio of 90% or more (almost completely withered))

**Q.** And the “herbicidal effect, I (Avena fatua)” value (Avena fatua; [6])?
**A.** 5 (Herbicidal ratio of 90% or more (almost completely withered))

**Q.** And the “herbicidal effect, M (Abutilon theophrasti)” value (Abutilon theophrasti; [6])?
**A.** 5 (Herbicidal ratio of 90% or more (almost completely withered))

**Q.** And the “herbicidal effect, L (Apera spica-venti.)” value (Apera spica-venti.; [6])?
**A.** 4 (Herbicidal ratio of 70% or more and less than 90%)

**Q.** And the “herbicidal effect, Q (Galium spurium)” value (Galium spurium; [6])?
**A.** 4 (Herbicidal ratio of 70% or more and less than 90%)

**Q.** And the “herbicidal effect, N (Amaranthus retroflexus)” value (Amaranthus retroflexus; [6])?
**A.** 5 (Herbicidal ratio of 90% or more (almost completely withered))

**Q.** What about the “herbicidal effect, O (Chenopodium album)” value (Chenopodium album; [6]) of the same compound?
**A.** 5 (Herbicidal ratio of 90% or more (almost completely withered))

**Q.** What about the “herbicidal effect, H (Echinochloa crus-galli var. crus-galli)” value [4, 6] of the same compound?
**A.** 5 (Herbicidal ratio of 90% or more (almost completely withered))

**Q.** And the “herbicidal effect, J (Alopecurus myosuroides)” value (Alopecurus myosuroides; [6])?
**A.** 4 (Herbicidal ratio of 70% or more and less than 90%)

**Q.** And the “herbicidal effect, G (Setaria viridis)” value (Setaria viridis; [6])?
**A.** 5 (Herbicidal ratio of 90% or more (almost completely withered))

**Q.** And the “herbicidal effect, P (Stellaria media)” value (Stellaria media; [6])?
**A.** 5 (Herbicidal ratio of 90% or more (almost completely withered))

**Q.** And the “herbicidal effect, K (Lolium multiflorum Lam.)” value (Lolium multiflorum Lam.; [6])?
**A.** 4 (Herbicidal ratio of 70% or more and less than 90%)

**Q.** And the “herbicidal effect, R (Veronica persica)” value (Veronica persica; [6])?
**A.** 5 (Herbicidal ratio of 90% or more (almost completely withered))
